Measured values published in patent US20100099756A1, “USES OF INCENSOLE, INCENSOLE ACETATE AND DERIVATIVES THEREOF” (YISSUM RESEARCH DEVELOPMENT COMPANY OF THE HEBREW …, priority 2006, published 2010).

Key:
closed head injury = test: Object recognition test after CHI; format: in vivo, mice
Protocol: This effect was sustained from 24 h to 21 days following injury as determined by the Mann-Whitney test (n=9-10 per group; * p<0.01; **p<0.001, as compared to vehicle treated, at the same day). (B) Mice were subjected to the object recognition test (Example 6) 3, 7, 14 and 21 days after CHI. The absolute time spent exploring each of the two objects was recorded and the % time calculated. At baseline (bl), when presented with two identical objects, exploration time of each object was about 50% in both groups. In the test (T) situation, after one of the objects was replaced by a novel one the % time spent exploring the new object was calculated.
Memory function was assessed by ORT (Object Recognition Test) and the results are depicted in FIG. 5B. […] Both groups spent equal time at the two objects (˜50% of total exploration time) at the baseline measurements, at all times post CHI. […] At 21 days, it appears that the vehicle-treated mice regained their ability, and exploration time reached a similar level to that of the IA-treated mice.

[1] = tested on: IKKα and IKKβ phosphorylation; test: TNFα-induced phosphorylation of the IKKs in HeLa cells; format: cell-based; details: TNFα 20 ng/ml for 20 minutes, IA 140 μM
Protocol: (A) IA inhibits IKK phosphorylation. HeLa cells were stimulated with TNFα (20 ng/ml for 20 minutes) in the absence or presence of IA (140 μM) as shown. Whole cell extracts were prepared and analyzed for the phosphoryation of IKKα and IKKβ by Western blotting (WB). (B) HeLa cells were stimulated with TNFα (20 ng/ml for 20 minutes) in the absence or presence of IA (140 μM). Cells were fixed and then stained with rabbit anti-p65 followed by anti-rabbit Rhodamine Red-labeled secondary Ab. and with DAPI for nuclei location (not shown). (B1) HeLa cells, no treatment; (B2) HeLa cells +IA; (B3) HeLa cells +TNF; (B4) HeLa cells +IA+TNF. The cells were examined under an Axioscope Zeiss microscope with a plan-Neofluor * 60 lens. Results of one of three independent experiments are shown.
Western Blot (WB). Following separation by SDS-PAGE, proteins were blotted to a polyvinylidene difluoride (PVDF) membrane (Millipore). The membrane was blocked in 5% (w/v) milk powder and then incubated in TBST containing the primary antibody and 2% (w/v) milk powder. All phospho-specific antibodies were purchased from Cell signaling Inc. αIκBa, αp65 and αCOX2 antibodies from Santa Cruz Inc. (California, USA). […]

TRPV3 = biological target: T1, TRPV3 (Mus musculus, UniProt Q8K424); test: Porsolt forced swimming test in WT and TRPV3−/− mice; format: in vivo, C57BL/6 mice; parameters: from tissue; host or cells: whole animal, wild type C57BL/6 female mice (TRPV3 KO as control); details: 75 mg/kg
T1 sequence (Q8K424 1-791): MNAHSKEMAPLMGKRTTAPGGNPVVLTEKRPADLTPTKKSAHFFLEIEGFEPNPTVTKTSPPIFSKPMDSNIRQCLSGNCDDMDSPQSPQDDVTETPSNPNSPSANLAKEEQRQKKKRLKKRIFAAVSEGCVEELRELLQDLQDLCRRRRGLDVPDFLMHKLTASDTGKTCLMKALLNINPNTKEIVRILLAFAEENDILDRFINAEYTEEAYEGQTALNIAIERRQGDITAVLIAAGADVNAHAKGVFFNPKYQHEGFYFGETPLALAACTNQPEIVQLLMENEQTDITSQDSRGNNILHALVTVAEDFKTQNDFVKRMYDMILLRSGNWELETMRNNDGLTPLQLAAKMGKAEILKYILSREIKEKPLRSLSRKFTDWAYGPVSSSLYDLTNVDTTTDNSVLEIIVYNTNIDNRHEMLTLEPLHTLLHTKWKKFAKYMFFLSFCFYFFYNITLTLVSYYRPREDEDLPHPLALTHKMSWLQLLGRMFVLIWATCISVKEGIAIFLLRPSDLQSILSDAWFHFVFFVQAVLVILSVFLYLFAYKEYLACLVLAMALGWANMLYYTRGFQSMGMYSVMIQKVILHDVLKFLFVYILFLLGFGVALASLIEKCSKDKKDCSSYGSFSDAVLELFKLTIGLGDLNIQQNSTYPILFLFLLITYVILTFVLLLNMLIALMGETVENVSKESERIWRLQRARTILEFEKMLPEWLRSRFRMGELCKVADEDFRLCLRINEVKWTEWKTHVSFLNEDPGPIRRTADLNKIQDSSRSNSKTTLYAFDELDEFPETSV
Protocol: Wild type and TRPV3^−/− mice (18-20 weeks old) were injected with vehicle (isopropanol:emulphor:saline=1:1:18) or IA (75 mg/kg). 30 min later they were tested in a, the elevated plus maze (5 min), followed by b, 9 min exposure to the Porsolt forced-swimming test. […] Data are presented as means±SEM; n=4-5. * p<0.05, compared to WT-Vehicle-injected mice (Bonferroni post hoc test). ** p<0.01, compared to WT-Vehicle-injected mice (Bonferroni post hoc test).
Animals and procedures. Female Sabra mice (Harlan, Israel, 15-20 weeks old) and wild type C57BL/6 or TRPV3 KO female mice (18-20 weeks old) [Chung, M. K., Lee, H., Mizuno, A., Suzuki, M. & Caterina, M. J. TRPV3 and TRPV4 mediate warmth-evoked currents in primary mouse keratinocytes. J. Biol. Chem. 279, 21569-21575 (2004)] were used for behavioral assessments. 10 mice were housed in each cage. The animal care and protocols met the guidelines of the U.S. National Institutes of Health, detailed in the Guide for the Care and Use of Laboratory Animals, and were applied in conformity with the Institutional Ethics Committees. For the c-Fos immunostaining, female Sabra mice (see above) were used. Temperature in the animal room was maintained between 20-22° C., the light cycle was 12 h lights on (8:00-20:00 h); 12 h lights off (20:00-8:00 h). […]

anxiety-like behavior = test: Elevated plus maze; format: in vivo, female Sabra mice; details: 50 mg/kg i.p.

In the case of `CC(=O)OC1CC/C(C)=C/CC/C(C)=C/CC2(C(C)C)CCC1(C)O2` (stereo not drawn) [IA, incensole acetate], the “time exploring the new object, persistence of the effect” value (closed head injury; 7 and 14 days post injury) is reported as “sustained for 7 and 14 days”, the “time exploring the new object” value (closed head injury; 3 days post injury, 50 mg/kg, P=0.01) is reported as “significantly longer times exploring the new object” and the “memory function of naïve, non-injured mice” value (closed head injury; non-injured mice, data not shown) is reported as “not affected”. For the same molecule, the IKKα/IKKβ phosphorylation [1] was “inhibition of IKKα/IKKβ phosphorylation”, the “immobility time, WT mice” value (TRPV3) was “significantly reduced the immobility time” and the “time in open arms of the elevated plus maze” value (anxiety-like behavior) was “potent anxiolytic-like effect”.
